Test system: mice
Assay: Safety and toxicity studies in mice
Type: in vivo
Settings: 0.5, 1 and 2 g/kg
Method: The clinical dose of HT is in the range of 1-2000 mg/day, more preferably in the range of 5-500 mg/day and most preferably 10-100 mg/day.

OCCc1ccc(O)c(O)c1 [HT, hydroxytyrosol]
clinical or pathological toxicity: no clinical or pathological toxicity

— patent publication US20060177530A1, “Method of treating diabetes type II” (priority 2003, published 2006)
